Data from US20210251991A1, “SUBSTITUTED 2,2'-BIPYRIMIDINYL COMPOUNDS, ANALOGUES THEREOF, AND METHODS USING SAME” (priority 2018, published 2021).

Each compound was assayed on HBsAg in HepG2.2.15 cells (assay: HBsAg assay: inhibition of HBsAg in HepG2.2.15 cells (chemiluminescence immunoassay of supernatant)). Conditions: Hepatitis B virus, HepG2.2.15, 144 h, read-out: sAg EC50, HepG2.2.15 cells, supernatant collected at day 6 after exposure, HBsAg CLIA.
Type: cell-based, hepatitis B virus
Method: Inhibition of HBsAg was determined in HepG2.2.15 cells. Cells were maintained in culture medium containing 10% fetal calf serum, […], Glutamine, penicillin/streptomycin. Cells were seeded in 96-well collagen-coated plate at a density of 30,000 cells/well. Serially diluted compounds were added to cells next day at the final DMSO concentration of 0.5%. Cells were incubated with compounds for 2-3 days, after which medium was removed. Fresh medium containing compounds was added to cells for additional 3-4 days. At day 6 after exposure of compounds, supernatant was collected, the HBsAg immunoassay (microplate-based chemiluminescence immunoassay kits, CLIA, Autobio Diagnosics Co., Zhengzhou, China, Catalog #CL0310-2) was used to determine the level of HBsAg according to manufactory instruction. Dose-response curves were generated and the EC50 value (effective concentrations that achieved 50% inhibitory effect) were determined using XLfit software. In addition, cells were seeded at a density of 5,000 cells/well for determination of cell viability in the presence and absence of compounds by using CellTiter-Glo reagent (Promega).
Compound `Fc1cc(F)c2c(c1)CN(c1cnc(-c3ncccn3)nc1)CC2` [Example 1, 2-([2,2′-Bipyrimidin]-5-yl)-5,7-difluoro-1,2,3,4-tetrahydroisoquinoline] has an EC50 of 1.9 µM. `Fc1cc(F)c2c(c1)CN(c1ccnc(-c3ncccn3)n1)CC2` [Example 2, 2-([2,2′-Bipyrimidin]-4-yl)-5,7-difluoro-1,2,3,4-tetrahydroisoquinoline] showed an EC50 of 1.6 µM. `Fc1ccc2c(c1F)CCN(c1cnc(-c3ncccn3)nc1)C2` [Example 3, 2-([2,2′-Bipyrimidin]-5-yl)-5,6-difluoro-1,2,3,4-tetrahydroisoquinoline] gave an EC50 of 3.4 µM. Compound `Fc1ccc2c(c1F)CCN(c1ccnc(-c3ncccn3)n1)C2` [Example 4, 2-([2,2′-Bipyrimidin]-4-yl)-5,6-difluoro-1,2,3,4-tetrahydroisoquinoline] has an EC50 of 0.9 µM. `CC1CN(c2cnc(-c3ncccn3)nc2)Cc2ccccc21` (stereo not shown) [Example 5, 2-([2,2′-Bipyrimidin]-5-yl)-4-methyl-1,2,3,4-tetrahydroisoquinoline] showed an EC50 of 34 µM. In the case of `CC1c2ccccc2CCN1c1cnc(-c2ncccn2)nc1` (stereo not shown) [Example 6, 1-Methyl-2-(2-pyrimidin-2-ylpyrimidin-5-yl)-3,4-dihydro-1H-isoquinoline], the EC50 is reported as 1.4 µM. With `CC1c2ccccc2CCN1c1ccnc(-c2ncccn2)n1` (stereo not shown) [Example 7, 2-([2,2′-Bipyrimidin]-4-yl)-1-methyl-1,2,3,4-tetrahydroisoquinoline] the EC50 was 1.9 µM. Compound `CCC1Cc2ccccc2CN1c1ccnc(-c2ncccn2)n1` (stereo not shown) [Example 8, 2-([2,2′-Bipyrimidin]-4-yl)-3-ethyl-1,2,3,4-tetrahydroisoquinoline] has an EC50 of 2.3 µM. With `c1cnc(-c2nccc(N3CCc4ccccc4C3)n2)nc1` [Example 9, 2-([2,2′-Bipyrimidin]-4-yl)-1,2,3,4-tetrahydroisoquinoline] the EC50 was 8.5 µM. In the case of `CCC1c2ccccc2CCN1c1cnc(-c2ncccn2)nc1` (stereo not shown) [Example 10, 2-([2,2′-Bipyrimidin]-5-yl)-1-ethyl-1,2,3,4-tetrahydroisoquinoline], the EC50 is reported as 0.25 µM. `CCC1c2ccccc2CCN1c1ccnc(-c2ncccn2)n1` (stereo not shown) [Example 13, 2-([2,2′-Bipyrimidin]-4-yl)-1-ethyl-1,2,3,4-tetrahydroisoquinoline] showed an EC50 of 0.5 µM. Compound `FC(F)(F)c1cccc2c1CN(c1cnc(-c3ncccn3)nc1)C2` [Example 14, 2-([2,2′-Bipyrimidin]-5-yl)-4-(trifluoromethyl)isoindoline] has an EC50 of 25 µM. Compound `CC1CN(c2ccnc(-c3ncccn3)n2)Cc2ccccc21` (stereo not shown) [Example 15, 2-([2,2′-Bipyrimidin]-4-yl)-4-methyl-1,2,3,4-tetrahydroisoquinoline] has an EC50 of 1.1 µM. Compound `CC1CN(c2cnc(-c3ncccn3)nc2)C(=O)c2ccccc21` (stereo not shown) [Example 16, 2-([2,2′-Bipyrimidin]-5 yl)-4-methyl-3,4-dihydroisoquinolin-1(2H)-one] has an EC50 of 9.1 µM. In the case of `Fc1cc2c(cc1F)CN(c1ccnc(-c3ncccn3)n1)CC2` [Example 17, 2-([2,2′-Bipyrimidin]-4-yl)-6,7-difluoro-1,2,3,4-tetrahydroisoquinoline], the EC50 is reported as 0.61 µM. With `COc1cc2c(cc1OC)C1(CCC1)N(c1cnc(-c3ncccn3)nc1)CC2` [Example 18, 2′-([2,2′-Bipyrimidin]-5-yl)-6′,7′-dimethoxy-3′,4′-dihydro-2′H-spiro[cyclobutane-1,1′-isoquinoline]] the EC50 was 50 µM. Work on `CCC1c2ccccc2CN1c1cnc(-c2ncccn2)nc1` (stereo not shown) [Example 19, 2-([2,2′-Bipyrimidin]-5-yl)-1-ethylisoindoline] yielded an EC50 of 0.8 µM. Work on `c1cnc(-c2ncc(N3CC4CCC3c3ccccc34)cn2)nc1` (stereo not shown) [Example 20, 10-([2,2′-Bipyrimidin]-5-yl)-1,2,3,4-tetrahydro-1,4-(epiminomethano) naphthalene] yielded an EC50 of 32 µM. For `c1cnc(-c2ncc(N3CC4CC3c3ccccc34)cn2)nc1` (stereo not shown) [Example 21, 2-([2,2′-Bipyrimidin]-5-yl)-1,2,3,4-tetrahydro-1,4-methanoisoquinoline], the EC50 was 27 µM. `c1cnc(-c2ncc(N3C4CCC3c3ccccc34)cn2)nc1` [Example 22, 9-([2,2′-Bipyrimidin]-5-yl)-1,2,3,4-tetrahydro-1,4-epiminonaphthalene] gave an EC50 of 21 µM. In the case of `CCCC1c2ccccc2CCN1c1ccnc(-c2ncccn2)n1` (stereo not shown) [Example 23, 2-([2,2′-Bipyrimidin]-4-yl)-1-propyl-1,2,3,4-tetrahydroisoquinoline], the EC50 is reported as 1 µM. Work on `CC1c2ccc(F)c(F)c2CCN1c1cnc(-c2ncccn2)nc1` (stereo not shown) [Example 24, 2-([2,2′-Bipyrimidin]-5-yl)-5,6-difluoro-1-methyl-1,2,3,4-tetrahydroisoquinoline] yielded an EC50 of 0.34 µM. Work on `CCC1c2cc(F)c(F)cc2CCN1c1cnc(-c2ncccn2)nc1` (stereo not shown) [Example 25, 2-([2,2′-Bipyrimidin]-5-yl)-1-ethyl-6,7-difluoro-1,2,3,4-tetrahydroisoquinoline] yielded an EC50 of 0.085 µM. `COC(=O)CC1c2cc(OC)c(OC)cc2CCN1c1cnc(-c2ncccn2)nc1` (stereo not shown) [Example 26, Methyl 2-(2-([2,2′-bipyrimidin]-5-yl)-6,7-dimethoxy-1,2,3,4-tetrahydroisoquinolin-1-yl) acetate] was tested, and the EC50 was 1.2 µM. `COc1cc2c(cc1OC)C(CC(=O)O)N(c1cnc(-c3ncccn3)nc1)CC2` (stereo not shown) [Example 27, 2-(2-([2,2′-Bipyrimidin]-5-yl)-6,7-dimethoxy-1,2,3,4-tetrahydroisoquinolin-1-yl) acetic Acid] gave an EC50 of 28 µM. `CCC1c2ccc(OC)c(OC)c2CCN1c1cnc(-c2ncccn2)nc1` (stereo not shown) [Example 28, 2-([2,2′-Bipyrimidin]-5-yl)-1-ethyl-5,6-dimethoxy-1,2,3,4 Tetrahydroisoquinoline] gave an EC50 of 0.18 µM. `CCC1c2cc(OC)c(F)c(F)c2CCN1c1cnc(-c2ncccn2)nc1` (stereo not shown) [Example 29, 1-Ethyl-5,6-difluoro-7-methoxy-2-(2-pyrimidin-2-ylpyrimidin-5-yl)-3,4-dihydro-1H-isoquinoline] was tested, and the EC50 was 0.17 µM.

Same assay, conditions: read-out: sAg EC50; HepG2.2.15 cells, supernatant collected at day 6 after exposure, HBsAg CLIA
`CCC1c2cc(F)c(OC)cc2CN1c1cnc(C(=O)Nc2ccccn2)nc1` (single isomer, unassigned) [Example 108, 5-(1-Ethyl-6-fluoro-5-methoxyisoindolin-2-yl)-N-(pyridin-2-yl)pyrimidine-2-carboxamide] was tested, and the EC50 was 0.56 µM. Compound `CCC1c2cc(F)c(OC)cc2CN1c1ccnc(C(=O)NC)n1` (single isomer, unassigned) [Example 109, 4-(1-Ethyl-6-fluoro-5-methoxyisoindolin-2-yl)-N-methylpyrimidine-2-carboxamide] has an EC50 of 42 µM. Work on `CCC1c2cc(F)c(OC)cc2CN1c1ccnc(C(=O)NC)n1` (single isomer, unassigned) [Example 110, 4-(1-Ethyl-6-fluoro-5-methoxyisoindolin-2-yl)-N-methylpyrimidine-2-carboxamide] yielded an EC50 of 3 µM. In the case of `CCC1c2cc(F)c(OC)cc2CCN1c1cnc(C(=O)O)nc1` (single isomer, unassigned) [Example 114, 5-(1-Ethyl-7-fluoro-6-methoxy-3,4-dihydro-1H-isoquinolin-2-yl)pyrimidine-2-carboxylic Acid], the EC50 is reported as 0.057 µM. Compound `CCC1c2cc(F)c(OC)cc2CCN1c1cnc(C(=O)O)nc1` (single isomer, unassigned) [Example 115, 5-(1-Ethyl-7-fluoro-6-methoxy-3,4-dihydro-1H-isoquinolin-2-yl)pyrimidine-2-carboxylic Acid] has an EC50 of 6 µM. `CCC1c2cc(F)c(F)cc2CN1c1cnc(C(=O)O)nc1` (single isomer, unassigned) [Example 116, 5-(1-Ethyl-5,6-difluoroisoindolin-2-yl)pyrimidine-2-carboxylic Acid] was tested, and the EC50 was 3 µM. With `CCC1c2cc(F)c(F)cc2CN1c1cnc(C(=O)O)nc1` (single isomer, unassigned) [Example 117, 5-(1-Ethyl-5,6-difluoroisoindolin-2-yl)pyrimidine-2-carboxylic Acid] the EC50 was 15 µM. In the case of `CCC1c2cc(F)c(OC)cc2CCN1c1ccnc(-c2ncccn2)n1` (single isomer, unassigned) [Example 128, 2-(2,2′-Bipyrimidin-4-yl)-1-ethyl-7-fluoro-6-methoxy-1,2,3,4-tetrahydroisoquinoline], the EC50 is reported as 0.082 µM. With `CCC1c2cc(F)c(OC)cc2CCN1c1ccnc(-c2ncccn2)n1` (single isomer, unassigned) [Example 129, 2-(2,2′-Bipyrimidin-4-yl)-1-ethyl-7-fluoro-6-methoxy-1,2,3,4-tetrahydroisoquinoline] the EC50 was 0.015 µM. With `CCCC1c2ccc(F)c(F)c2CCN1c1ccnc(-c2ncccn2)n1` (single isomer, unassigned) [Example 130, 2-([2,2′-Bipyrimidin]-4-yl)-5,6-difluoro-1-propyl-1,2,3,4-tetrahydroisoquinoline] the EC50 was 0.097 µM. With `CCCC1c2ccc(F)c(F)c2CCN1c1ccnc(-c2ncccn2)n1` (single isomer, unassigned) [Example 131, 2-([2,2′-Bipyrimidin]-4-yl)-5,6-difluoro-1-propyl-1,2,3,4-tetrahydroisoquinoline] the EC50 was 2 µM. Work on `CCC1c2cc(F)c(OC)cc2CCN1c1cnc(-c2ncccn2)nc1` (single isomer, unassigned) [Example 133, 2-(2,2′-Bipyrimidin-5-yl)-1-ethyl-7-fluoro-6-methoxy-1,2,3,4-tetrahydroisoquinoline] yielded an EC50 of 0.003 µM. `CCC1c2cc(F)c(OC)cc2CCN1c1cnc(-c2ncccn2)nc1` (single isomer, unassigned) [Example 134, 2-(2,2′-Bipyrimidin-5-yl)-1-ethyl-7-fluoro-6-methoxy-1,2,3,4-tetrahydroisoquinoline] showed an EC50 of 0.054 µM.
